Results on four compounds are retold here after publication PMC7026418, “The kinase polypharmacology landscape of clinical PARP inhibitors” (Scientific Reports, 2020).

Some targets named below: AURKB (Homo sapiens, UniProt Q96GD4); MELK (Homo sapiens, UniProt Q14680); SRPK1 (Homo sapiens, UniProt Q96SB4).
What all share (assay): biochemical
What all share (design): DiscoveRx KINOMEscan active site-directed competition binding; percent of control kinase bound to immobilised ligand

Another test deals with T1, ACVR1B (Homo sapiens, UniProt P36896).
T1 sequence (P36896 1-505): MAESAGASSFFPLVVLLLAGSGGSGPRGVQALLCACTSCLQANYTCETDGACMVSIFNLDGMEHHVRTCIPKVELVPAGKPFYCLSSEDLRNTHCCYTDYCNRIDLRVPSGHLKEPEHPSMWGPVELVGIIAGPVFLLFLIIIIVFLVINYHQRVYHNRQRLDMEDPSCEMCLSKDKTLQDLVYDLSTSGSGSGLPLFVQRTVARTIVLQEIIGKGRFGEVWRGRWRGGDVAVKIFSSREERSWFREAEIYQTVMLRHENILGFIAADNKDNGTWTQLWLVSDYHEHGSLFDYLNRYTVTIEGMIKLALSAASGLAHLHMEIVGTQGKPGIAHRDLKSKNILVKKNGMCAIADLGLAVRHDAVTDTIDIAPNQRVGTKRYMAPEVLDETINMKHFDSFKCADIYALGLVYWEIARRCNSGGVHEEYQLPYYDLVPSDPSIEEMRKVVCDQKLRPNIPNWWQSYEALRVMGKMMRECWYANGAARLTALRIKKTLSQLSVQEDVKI

The next test concerns the target T2, MEK3 (Homo sapiens, UniProt P46734).
T2 construct: gene MAP2K3
T2 sequence (P46734 1-347): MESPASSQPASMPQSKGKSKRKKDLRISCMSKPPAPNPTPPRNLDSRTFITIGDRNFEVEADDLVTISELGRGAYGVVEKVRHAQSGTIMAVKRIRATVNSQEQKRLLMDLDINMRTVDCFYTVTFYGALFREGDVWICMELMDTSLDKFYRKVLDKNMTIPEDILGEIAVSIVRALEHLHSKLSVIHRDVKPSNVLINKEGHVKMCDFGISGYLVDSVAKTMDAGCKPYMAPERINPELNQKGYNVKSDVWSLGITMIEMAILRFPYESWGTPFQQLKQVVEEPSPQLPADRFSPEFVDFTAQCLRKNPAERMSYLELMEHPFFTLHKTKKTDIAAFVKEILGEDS

Another test concerns the target T3, PRKR (Homo sapiens, UniProt P19525).
T3 construct: gene EIF2AK2

A further test deals with T4, TGFBR1 (Homo sapiens, UniProt P36897).
T4 sequence (P36897 1-503): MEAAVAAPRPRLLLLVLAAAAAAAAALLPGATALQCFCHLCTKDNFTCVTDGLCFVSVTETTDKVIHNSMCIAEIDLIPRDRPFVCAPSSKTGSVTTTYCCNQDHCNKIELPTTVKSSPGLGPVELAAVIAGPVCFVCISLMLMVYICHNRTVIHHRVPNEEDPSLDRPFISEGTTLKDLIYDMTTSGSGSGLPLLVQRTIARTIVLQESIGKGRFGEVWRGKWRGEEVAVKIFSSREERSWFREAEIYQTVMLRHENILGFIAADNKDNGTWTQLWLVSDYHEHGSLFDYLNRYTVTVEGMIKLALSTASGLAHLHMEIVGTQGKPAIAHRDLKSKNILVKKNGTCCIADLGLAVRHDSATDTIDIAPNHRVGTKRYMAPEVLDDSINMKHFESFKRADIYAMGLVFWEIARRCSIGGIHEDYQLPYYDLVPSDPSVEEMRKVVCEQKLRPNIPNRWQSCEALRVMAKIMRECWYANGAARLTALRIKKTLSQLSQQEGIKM

The target of another test is T5, TSSK1B (Homo sapiens, UniProt Q9BXA7).
T5 sequence (Q9BXA7 1-367): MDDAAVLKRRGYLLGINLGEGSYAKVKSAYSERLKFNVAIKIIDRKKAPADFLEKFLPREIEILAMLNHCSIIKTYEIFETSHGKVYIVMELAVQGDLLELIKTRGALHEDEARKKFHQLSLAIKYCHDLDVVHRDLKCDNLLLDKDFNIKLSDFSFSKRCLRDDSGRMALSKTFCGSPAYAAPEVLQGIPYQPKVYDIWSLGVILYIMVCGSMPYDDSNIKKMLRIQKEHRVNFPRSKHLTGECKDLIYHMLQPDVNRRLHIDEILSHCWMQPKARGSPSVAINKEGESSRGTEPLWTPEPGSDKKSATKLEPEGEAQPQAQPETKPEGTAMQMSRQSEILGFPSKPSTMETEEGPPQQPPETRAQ

Another test has as its target T6, VEGFR2 (Homo sapiens, UniProt P35968).
T6 construct: gene KDR

Where [1] appears, read: read-out: Rucaparib / %Ctrl @ 10000nM, binding competition, % of control.
Setting [2] is: read-out: Talazoparib (BMN 673) / %Ctrl @ 10000nM.
[3] abbreviates: read-out: Niraparib (MK-4827) / %Ctrl @ 10000nM.
Where [4] appears, read: read-out: Olaparib / %Ctrl @ 10000nM.

Where two headings read alike, the source gives them in different places.

Sequence of AURKB (Q96GD4 whole entry): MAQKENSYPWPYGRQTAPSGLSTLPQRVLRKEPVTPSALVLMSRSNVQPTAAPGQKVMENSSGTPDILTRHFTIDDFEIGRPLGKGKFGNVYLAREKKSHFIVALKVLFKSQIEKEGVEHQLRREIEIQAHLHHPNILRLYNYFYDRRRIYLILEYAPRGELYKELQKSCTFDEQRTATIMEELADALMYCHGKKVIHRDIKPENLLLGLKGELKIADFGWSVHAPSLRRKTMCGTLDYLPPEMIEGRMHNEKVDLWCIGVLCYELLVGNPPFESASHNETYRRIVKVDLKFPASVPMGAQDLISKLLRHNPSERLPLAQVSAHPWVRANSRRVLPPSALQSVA
Sequence of MELK (Q14680 whole entry): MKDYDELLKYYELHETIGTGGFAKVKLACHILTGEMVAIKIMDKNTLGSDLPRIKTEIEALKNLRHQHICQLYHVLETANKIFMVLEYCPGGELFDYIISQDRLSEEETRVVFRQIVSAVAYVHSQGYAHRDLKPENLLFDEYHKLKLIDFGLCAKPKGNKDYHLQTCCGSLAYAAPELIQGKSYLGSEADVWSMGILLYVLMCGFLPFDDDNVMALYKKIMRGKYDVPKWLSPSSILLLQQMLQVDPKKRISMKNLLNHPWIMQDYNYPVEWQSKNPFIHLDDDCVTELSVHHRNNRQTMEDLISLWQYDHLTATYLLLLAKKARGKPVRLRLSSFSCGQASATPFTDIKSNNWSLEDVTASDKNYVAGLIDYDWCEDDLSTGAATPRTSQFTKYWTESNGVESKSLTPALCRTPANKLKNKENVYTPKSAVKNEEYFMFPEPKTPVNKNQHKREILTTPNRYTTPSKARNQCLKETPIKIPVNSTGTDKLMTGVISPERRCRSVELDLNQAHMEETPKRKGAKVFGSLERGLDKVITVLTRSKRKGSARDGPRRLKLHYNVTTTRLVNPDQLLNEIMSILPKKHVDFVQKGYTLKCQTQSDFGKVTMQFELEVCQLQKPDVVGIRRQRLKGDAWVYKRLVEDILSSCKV
T6 sequence (P35968 whole entry): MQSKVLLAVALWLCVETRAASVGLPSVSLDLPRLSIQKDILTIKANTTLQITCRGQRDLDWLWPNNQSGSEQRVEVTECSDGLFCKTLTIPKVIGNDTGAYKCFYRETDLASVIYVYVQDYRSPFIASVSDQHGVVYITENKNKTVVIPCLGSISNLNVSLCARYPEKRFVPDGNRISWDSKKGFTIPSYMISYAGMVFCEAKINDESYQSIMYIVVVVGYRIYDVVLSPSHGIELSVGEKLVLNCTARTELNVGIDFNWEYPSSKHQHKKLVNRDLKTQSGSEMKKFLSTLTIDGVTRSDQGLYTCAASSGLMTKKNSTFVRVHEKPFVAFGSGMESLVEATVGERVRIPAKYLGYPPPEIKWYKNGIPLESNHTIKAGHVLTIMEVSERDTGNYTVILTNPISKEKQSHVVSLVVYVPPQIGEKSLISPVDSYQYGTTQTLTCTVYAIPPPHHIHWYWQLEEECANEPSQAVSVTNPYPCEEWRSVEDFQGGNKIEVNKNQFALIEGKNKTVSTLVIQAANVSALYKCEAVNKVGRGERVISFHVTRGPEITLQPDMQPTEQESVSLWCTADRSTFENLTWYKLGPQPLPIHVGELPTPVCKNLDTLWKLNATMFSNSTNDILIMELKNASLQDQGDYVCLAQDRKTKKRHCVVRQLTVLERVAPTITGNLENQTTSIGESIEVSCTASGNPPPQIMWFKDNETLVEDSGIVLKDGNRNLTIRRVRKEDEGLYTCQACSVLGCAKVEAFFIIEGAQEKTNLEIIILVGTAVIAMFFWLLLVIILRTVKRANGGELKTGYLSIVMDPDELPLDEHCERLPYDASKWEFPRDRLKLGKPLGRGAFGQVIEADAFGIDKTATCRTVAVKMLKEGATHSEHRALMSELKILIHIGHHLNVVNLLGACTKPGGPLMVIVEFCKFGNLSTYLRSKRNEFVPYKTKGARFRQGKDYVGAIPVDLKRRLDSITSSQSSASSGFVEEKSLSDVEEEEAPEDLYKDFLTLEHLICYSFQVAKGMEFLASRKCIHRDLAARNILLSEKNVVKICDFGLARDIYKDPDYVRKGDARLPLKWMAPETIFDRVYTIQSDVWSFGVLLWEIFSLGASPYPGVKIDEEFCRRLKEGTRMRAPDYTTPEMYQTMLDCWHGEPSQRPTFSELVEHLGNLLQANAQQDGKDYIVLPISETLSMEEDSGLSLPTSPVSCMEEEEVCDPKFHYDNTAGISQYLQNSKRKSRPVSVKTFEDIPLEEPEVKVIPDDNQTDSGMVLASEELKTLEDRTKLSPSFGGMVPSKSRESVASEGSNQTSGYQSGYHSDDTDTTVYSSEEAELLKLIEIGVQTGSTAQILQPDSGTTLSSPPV
T3 sequence (P19525 whole entry): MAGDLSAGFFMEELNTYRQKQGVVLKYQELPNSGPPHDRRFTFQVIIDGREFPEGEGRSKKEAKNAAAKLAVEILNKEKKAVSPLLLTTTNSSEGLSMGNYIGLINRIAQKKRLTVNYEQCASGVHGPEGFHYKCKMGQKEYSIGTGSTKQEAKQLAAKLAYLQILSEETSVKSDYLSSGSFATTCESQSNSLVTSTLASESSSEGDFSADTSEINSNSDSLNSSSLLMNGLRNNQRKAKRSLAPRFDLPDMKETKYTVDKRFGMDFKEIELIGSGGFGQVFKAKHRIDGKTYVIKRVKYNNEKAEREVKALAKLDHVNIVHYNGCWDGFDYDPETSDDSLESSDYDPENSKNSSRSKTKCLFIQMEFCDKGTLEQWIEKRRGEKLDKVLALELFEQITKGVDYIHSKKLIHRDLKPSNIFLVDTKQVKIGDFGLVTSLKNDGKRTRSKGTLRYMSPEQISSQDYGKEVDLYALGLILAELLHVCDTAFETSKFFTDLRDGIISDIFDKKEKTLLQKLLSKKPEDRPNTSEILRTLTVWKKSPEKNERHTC
Sequence of SRPK1 (Q96SB4 whole entry): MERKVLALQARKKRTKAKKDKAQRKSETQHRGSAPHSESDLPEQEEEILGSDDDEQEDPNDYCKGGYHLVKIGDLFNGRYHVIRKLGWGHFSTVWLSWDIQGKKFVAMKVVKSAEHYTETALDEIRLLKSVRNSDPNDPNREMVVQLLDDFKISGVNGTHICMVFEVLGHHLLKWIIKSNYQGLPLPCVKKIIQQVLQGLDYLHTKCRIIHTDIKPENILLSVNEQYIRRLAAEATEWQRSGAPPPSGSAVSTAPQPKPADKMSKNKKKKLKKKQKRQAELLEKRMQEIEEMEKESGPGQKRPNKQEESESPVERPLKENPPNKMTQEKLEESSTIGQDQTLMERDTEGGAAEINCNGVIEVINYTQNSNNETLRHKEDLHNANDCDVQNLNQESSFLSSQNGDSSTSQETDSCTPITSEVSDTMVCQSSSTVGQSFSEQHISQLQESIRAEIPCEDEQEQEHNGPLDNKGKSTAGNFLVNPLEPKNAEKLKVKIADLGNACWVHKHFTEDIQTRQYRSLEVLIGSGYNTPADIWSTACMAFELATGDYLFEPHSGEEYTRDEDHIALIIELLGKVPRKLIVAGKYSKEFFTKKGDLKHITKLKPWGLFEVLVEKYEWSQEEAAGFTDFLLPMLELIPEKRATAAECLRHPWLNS

In the case of `CNCc1ccc(-c2[nH]c3cc(F)cc4c3c2CCNC4=O)cc1` [Rucaparib], the percent of control binding at 10 µM at ACVR1B (setting [1]) worked out at 89%; on AURKB (setting [1]), 100%; at MEK3 (setting [1]), 83%; at MELK (setting [1]), 76%; on PRKR (setting [1]) it was 76%; at SRPK1 (setting [1]) it was 97%. Besides, the percent of control binding at 10 µM at TGFBR1 (setting [1]) amounted to 98%; at TSSK1B (setting [1]), 88%; at VEGFR2 (setting [1]) it was 98%.
On to `Cn1ncnc1[C@H]1c2n[nH]c(=O)c3cc(F)cc(c23)N[C@@H]1c1ccc(F)cc1` [Talazoparib], for which the percent of control binding at 10 µM was 77% at ACVR1B (setting [2]); 73% at AURKB (setting [2]); 65% at MEK3 (setting [2]); 94% on MELK (setting [2]); 78% on PRKR (setting [2]); 100% at SRPK1 (setting [2]). The values for the percent of control binding at 10 µM at TGFBR1 (setting [2]), on TSSK1B (setting [2]) and on VEGFR2 (setting [2]) were 100%, 94% and 100%, respectively.
As for `NC(=O)c1cccc2cn(-c3ccc([C@@H]4CCCNC4)cc3)nc12` [Niraparib], the percent of control binding at 10 µM on ACVR1B (setting [3]) worked out at 95%; on AURKB (setting [3]), 8.1%; on MEK3 (setting [3]), 80%; at MELK (setting [3]), 70%; at PRKR (setting [3]), 91%; on SRPK1 (setting [3]), 77%. Further, the percent of control binding at 10 µM on TGFBR1 (setting [3]) amounted to 98%; at TSSK1B (setting [3]) it was 65%; at VEGFR2 (setting [3]), 77%.
In the case of `O=C(c1cc(Cc2n[nH]c(=O)c3ccccc23)ccc1F)N1CCN(C(=O)C2CC2)CC1` [Olaparib], the percent of control binding at 10 µM came out at 100% on ACVR1B (setting [4]); 100% at AURKB (setting [4]); 85% at MEK3 (setting [4]); 90% at MELK (setting [4]); 94% at PRKR (setting [4]); 98% on SRPK1 (setting [4]). Also, the percent of control binding at 10 µM worked out at 93% on TGFBR1 (setting [4]), 100% on TSSK1B (setting [4]) and 95% at VEGFR2 (setting [4]).
